Test results published in ChEMBL document CHEMBL1146309, “Tetrahydrobenzotriazines as a new class of nematocide” (2007).

System: Caenorhabditis elegans
Assay: Nematocidal activity against Caenorhabditis elegans assessed as revised death rate after 24 to 48 hrs
Type: functional
Design: concentration or dose not given beside the values

## CCCCCCCCCCCC(=O)N1N=C2C(C)=CC=CC2(C)CN1C (stereo unspecified)
  Activity: 17.2%

## CC1=CC=CC2(C)CN(C)N(C(=S)N(C)c3ccccc3)N=C12 (stereo unspecified)
  Activity: 100%

## CC(=O)N1N=C2C(C)=CC=CC2(C)CN1C (stereo unspecified)
  Activity: 100%

## CCCCCCCCCCC(=O)N1N=C2C(C)=CC=CC2(C)CN1C (stereo unspecified)
  Activity: 20.3%

## CCCCCCCCC(=O)N1N=C2C(C)=CC=CC2(C)CN1C (stereo unspecified)
  Activity: 97%

## CC1=CC=CC2(C)CN(C)N(C(=O)N(C)c3ccccc3)N=C12 (stereo unspecified)
  Activity: 74.2%

## CCCCCCCC(=O)N1N=C2C(C)=CC=CC2(C)CN1C (stereo unspecified)
  Activity: 10.3%

## CC1=CC=CC2(C)CN(C)N(C(=S)Nc3ccccc3)N=C12 (stereo unspecified)
  Activity: 20.9%

## CN=C=S [METHYLISOTHIOCYANATE]
  Activity: 100%

## CC1=CC=CC2(C)CN(C)N(C(=O)Nc3ccccc3)N=C12 (stereo unspecified)
  Activity: 43.8%

## CCCCCCCCCC(=O)N1N=C2C(C)=CC=CC2(C)CN1C (stereo unspecified)
  Activity: 64.6%
